Results as given in ChEMBL document CHEMBL4610094, “Prenylated Phenolic Compounds from the Aerial Parts of Glycyrrhiza uralensis as PTP1B and α-Glucosidase Inhibitors” (J Nat Prod, 2020).
Active and inactive are the calls of the source. The rule behind the calls is not given here.

Columns and labels:
[1] = target: T1, Tyrosine-protein phosphatase non-receptor type 1 (Homo sapiens) (UniProt P18031); assay: Inhibition of recombinant human PTP1B (1 to 321 residues) expressed in Escherichia coli at 10 uM using p-nitrophenyl phosphate as substrate incubated for 30 mins relative to control
T1 sequence (whole entry): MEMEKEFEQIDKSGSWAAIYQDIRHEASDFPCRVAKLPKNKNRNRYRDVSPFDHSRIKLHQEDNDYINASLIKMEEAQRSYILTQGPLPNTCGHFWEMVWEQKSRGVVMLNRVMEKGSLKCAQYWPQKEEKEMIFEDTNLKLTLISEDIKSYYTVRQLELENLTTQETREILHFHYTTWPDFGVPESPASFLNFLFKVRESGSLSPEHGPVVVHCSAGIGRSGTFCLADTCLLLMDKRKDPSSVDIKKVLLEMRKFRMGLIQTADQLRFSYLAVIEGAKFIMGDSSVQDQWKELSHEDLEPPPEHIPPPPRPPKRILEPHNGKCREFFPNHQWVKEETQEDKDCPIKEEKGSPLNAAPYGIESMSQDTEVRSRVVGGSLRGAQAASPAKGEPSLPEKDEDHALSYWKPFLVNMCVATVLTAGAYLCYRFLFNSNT

[2] = Cytotoxicity against human insulin resistant HepG2 cells assessed as cell viability at 10 uM by CCK8 assay relative to control; format: cell-based; conditions: read-out: Activity
Homo sapiens = organism: Homo sapiens; assay: Inhibition of alpha-Glucosidase (unknown origin) at 10 uM using pNPG as substrate incubated for 30 mins relative to control
[3] = target: T2, Tyrosine-protein phosphatase non-receptor type 1 (Homo sapiens, UniProt P18031); assay: Inhibition of recombinant human PTP1B (1 to 321 residues) expressed in Escherichia coli using p-nitrophenyl phosphate as substrate incubated for 30 mins
T2 sequence (P18031 whole entry): T1 sequence (whole entry)

[4] = Inhibition of alpha-Glucosidase (unknown origin) using pNPG as substrate incubated for 30 mins; set-up: species or system Homo sapiens
HepG2 [5] = assay: Induction of glucose uptake in human insulin resistant HepG2 cells at 10 uM incubated for 24 hrs by GOD-POD method relative to control; format: functional
HepG2 [6] = assay: Induction of glucose uptake in human insulin resistant HepG2 cells at 500 uM incubated for 24 hrs by GOD-POD method relative to control; format: functional, cell-based

SMILES | inhibition [1] | viability at 10 µM [2] | inhibition (Homo sapiens) | IC50 [3] | IC50 [4] | Activity (HepG2 [5]) | Activity (HepG2 [6])
CC(C)=CCc1c(O)ccc(-c2coc3cc(O)cc(O)c3c2=O)c1O | > 60% | 80 to 110% | 20.1% |  |  |  | 
COc1cc(O)ccc1-c1cc2c(OC)c(CC=C(C)C)c(O)cc2o1 | > 60% | 80 to 110% | > 40% | 5.3 µM |  |  | 
CC1(C)C=Cc2c(ccc([C@@H]3COc4cc(O)cc(O)c4C3=O)c2O)O1 | > 60% | 80 to 110% | > 40% |  |  |  | 
COc1c(CC=C(C)C)c(O)cc2oc(=O)c(-c3ccc(O)cc3O)cc12 [GLYCYCOUMARIN] | > 60% | 80 to 110% | > 40% |  | 0.1 µM |  | 
COc1cc2c(c(O)c1CC=C(C)C)C(=O)[C@H](c1ccc(O)cc1)CO2 | > 60% | 80 to 110% | > 40% |  |  | 95% | 
CC(C)=CCc1c(O)ccc([C@@]2(O)COc3cc(O)c(CC=C(C)C)c(O)c3C2=O)c1O | > 60% | 80 to 110% | > 40% |  |  |  | 
COc1cc2oc(-c3ccc(O)cc3O)cc2c(OC)c1CC=C(C)C | > 60% | 80 to 110% | > 40% | 3.3 µM |  |  | 
COc1cc(O)ccc1/C=C/C(=O)c1ccc(O)cc1 [ECHINATIN] | > 60% | 80 to 110% | > 40% |  |  |  | 
COc1ccc(-c2coc3cc(O)cc(O)c3c2=O)cc1 [BIOCHANIN] | > 60% | 80 to 110% | > 40% |  | 3.8 µM |  | 
CC(C)=CCc1c(O)cc2c(c1O)C(=O)[C@@](O)(c1ccc(O)c3c1OC(C)(C)C=C3)CO2 | > 60% | 80 to 110% | > 40% | 5.9 µM | 20.1 µM |  | 
O=C(/C=C/c1ccc(O)cc1)c1ccc(O)cc1O [ISOLIQUIRITIGENIN] | > 60% | 80 to 110% | > 40% |  | 5.6 µM |  | 
COc1ccc([C@@H]2COc3cc(O)c(CC=C(C)C)cc3C2)c(O)c1 | > 60% | 80 to 110% | > 40% |  |  |  | 
O=c1c(O)c(-c2ccc(O)cc2)oc2cc(O)cc(O)c12 [KAEMPFEROL] | > 60% | 80 to 110% | > 40% |  |  | >80% | 
COc1c(CC=C(C)C)c(O)cc2c1[C@@H]1Oc3cc4c(cc3[C@@H]1CO2)C=CC(C)(C)O4 | > 60% | 80 to 110% | > 40% | 4.8 µM |  |  | 
COc1cc2c(c(OC)c1CC=C(C)C)C[C@H](c1ccc(O)cc1O)CO2 [GLYASPERIN D] | > 60% | 80 to 110% | > 40% |  |  |  | 
CC(C)=CCc1c(O)c(CC=C(C)C)c2occ(-c3ccc(O)cc3)c(=O)c2c1O |  |  |  | 2.3 µM | 16.3 µM |  | 
Oc1ccc2c(c1)OC[C@@H](c1cc3c(cc1O)OCO3)C2 |  |  |  |  | 3.8 µM |  | 
C[C@H]1O[C@H](O[C@H]2[C@H](O)[C@@H](O)[C@@H](O[C@H]3[C@H](O)[C@@H](O)C(O)O[C@@H]3CO)O[C@@H]2CO)[C@H](O)[C@@H](O)[C@@H]1N[C@H]1C=C(CO)[C@@H](O)[C@H](O)[C@H]1O (stereo not given in full) [ACARBOSE] |  |  |  |  | 166 µM |  | 
CC(C)=CCc1cc(-c2coc3cc(O)c(CC=C(C)C)c(O)c3c2=O)cc(O)c1O |  |  |  | 7.7 µM |  |  | 
CC(C)=CCc1cc([C@@H]2CC(=O)c3c(O)cc(O)cc3O2)ccc1O | > 60% | 80 to 110% | > 40% |  |  |  | 
CC(C)=CCc1c(O)ccc(C2COc3cc(O)c(CC=C(C)C)c(O)c3C2=O)c1O (stereo not given) | > 60% | 80 to 110% | > 40% |  |  |  | 
CC(C)=CCc1cc([C@@H]2CC(=O)c3c(O)cc(O)c(CC=C(C)C)c3O2)ccc1O [LESPEDEZAFLAVANONE B] | > 60% | 80 to 110% | > 40% | 2.1 µM |  |  | 
COc1c(CC=C(C)C)c(O)cc2c1C[C@H](c1ccc(O)c(CC=C(C)C)c1O)CO2 [LICORICIDIN] |  |  |  | 5.9 µM |  |  | 
CC1(C)C=Cc2cc(-c3coc4cc(O)cc(O)c4c3=O)ccc2O1 | > 60% | 80 to 110% | > 40% |  |  |  | 
CC1(C)C=Cc2cc(/C=C/C(=O)c3ccc(O)cc3O)ccc2O1 | > 60% | 80 to 110% | > 40% |  |  |  | 

SMILES | inhibition [1] | viability at 10 µM [2] | inhibition (Homo sapiens) | IC50 [3] | IC50 [4] | Activity (HepG2 [5]) | Activity (HepG2 [6])
COc1c(CC=C(C)C)c(O)cc2c1[C@@H]1Oc3cc(O)c(CC=C(C)C)cc3[C@@H]1CO2 |  |  |  | 4.4 µM |  |  | 
COc1ccc([C@@H]2COc3cc(O)ccc3C2)c(O)c1 | > 60% | 80 to 110% | > 40% |  |  |  | 
CC1(C)C=Cc2cc(-c3coc4cc(O)cc(O)c4c3=O)cc(O)c2O1 | > 60% | 80 to 110% | > 40% |  |  |  | 
COc1cc2c(c(OC)c1CC=C(C)C)C[C@H](c1ccc(O)c(CC=C(C)C)c1O)CO2 | > 60% | 80 to 110% | > 40% |  |  |  | 
CC(C)=CCc1cc([C@@H]2COc3cc(O)c(CC=C(C)C)c(O)c3C2=O)ccc1O |  |  | > 40% |  |  |  | 
CN(C)C(=N)NC(=N)N |  |  |  |  |  |  | Active
COc1cc2c(c(O)c1CC=C(C)C)C(=O)C(c1ccc(O)cc1O)CO2 (stereo not given) | > 60% | 80 to 110% | > 40% |  |  | >80% | 
COc1cc2c(c(OC)c1CC=C(C)C)C[C@H](c1ccc(O)c3c1OC(C)(C)C=C3)CO2 |  |  |  | 7.2 µM |  |  | 
COc1c(CC=C(C)C)c(O)cc2oc(-c3ccc(O)cc3O)cc12 [LICOCOUMARONE] | > 60% | 80 to 110% | 61.2% |  |  | >80% | 
COc1cc2occ(-c3ccc(O)cc3O)c(=O)c2c(O)c1CC=C(C)C |  |  |  | 5.3 µM |  |  | 
C=C(C)[C@@H](O)Cc1c(O)ccc([C@@H]2COc3cc(OC)c(CC=C(C)C)c(OC)c3C2)c1O | > 60% | 80 to 110% | > 40% | 6.7 µM |  |  | 
CC(C)=CCc1cc(-c2oc3cc(O)c(CC=C(C)C)c(O)c3c(=O)c2O)ccc1O |  |  |  |  | 3.2 µM |  | 
COc1cc(O)c2c(=O)c(OC)c(-c3ccc(O)cc3)oc2c1 [KUMATAKENIN] | > 60% | 80 to 110% | > 40% |  |  |  | 
CC(C)=CCc1c(O)cc2oc(-c3ccc(O)cc3)c(O)c(=O)c2c1O [LICOFLAVONOL] | > 60% | 80 to 110% | > 40% |  |  |  | 
COc1cc2c(c(O)c1CC=C(C)C)C(=O)C(c1ccc(O)c(CC=C(C)C)c1O)CO2 (stereo not given) | > 60% | 80 to 110% | > 40% | 4.3 µM |  |  | 
COc1c(-c2ccc(O)cc2)oc2cc(O)c(CC=C(C)C)c(O)c2c1=O |  |  |  | 4.5 µM |  |  | 
O=c1c(-c2ccc(O)cc2)coc2cc(O)cc(O)c12 [GENISTEIN] | > 60% | 80 to 110% | 58.4% |  |  |  | 
CC(C)=CCc1c(O)ccc(-c2coc3c(CC=C(C)C)c(O)cc(O)c3c2=O)c1O |  |  |  | 7 µM |  |  | 
CC(C)=CCc1c(O)ccc(-c2cc3ccc(O)cc3o2)c1O [2'-O-DEMETHYLBIDWILLOL B] | > 60% | 80 to 110% | 61.7% | 9.2 µM | 8.6 µM |  | 
O=c1c(-c2ccc(O)cc2)coc2cc(O)ccc12 [DAIDZEIN] | > 60% | 80 to 110% | > 40% |  |  | >80% | 
COc1cc2oc(=O)c3c4ccc(O)cc4oc3c2c(OC)c1CC=C(C)C | > 60% | 80 to 110% | > 40% |  |  |  | 
COc1c(CC=C(C)C)c(O)cc2c1-c1oc3cc(O)ccc3c1CO2 | > 60% | 80 to 110% | > 40% | 8.3 µM | 0.3 µM | >80% | 
CC(C)=CCc1c(O)ccc(-c2coc3cc(O)c(CC=C(C)C)c(O)c3c2=O)c1O | > 60% | 80 to 110% | > 40% | 7.5 µM |  |  | 
COc1ccc(C2COc3c(CC=C(C)C)c(O)cc(O)c3C2=O)c(O)c1 (stereo not given) | > 60% | 80 to 110% | > 40% |  |  |  | 
CC(C)=CCc1cc(-c2coc3cc(O)cc(O)c3c2=O)ccc1O |  |  | 34.2% |  |  |  | 
